US20260256960A1
Where “and” joins values, the source holds several entries; their conditions need not be identical. Equal values may be shown once. Entries after “also recorded” stand apart in the source; their conditions may differ. Read-outs that look alike come from different tables or passages of the source.

Columns and labels:
HEBSC from 3×Tg-AD mice = assay: Hippocampal-entorhinal brain slice culture (HEBSC) from 3×Tg-AD mice, lipid / Aβ / LysoTracker staining; type: cell-based, mouse; conditions: for effect on ethanol-induced increase in cytosolic lipid / effect on ethanol-induced increase in intraneuronal Aβ: with ethanol
Protocol: HEBSC was performed using techniques routinely used in the laboratory^2,9,11 Briefly, sections were prepared from either the P7 or adult (6 mo) 3×-Tg-AD hippocampal-entorhinal cortex formation as described by Stoppini et al^16. […] Mice were decapitated, brains extracted and the hippocampal-entorhinal complex dissected in Gey's bugger (Sigma-Aldrich). Slices were cut transversely at 375 μm using a McIlwain tissue chopper and placed on Millicell culture inserts (Millipore, PICMORG50, up to 13 slices per insert). Slices acclimated in culture media (MEM plus 24 mM HEPES and Hank's salts, 25% horse serum, 5.5 g/L glucose, 2 mM L-glutamine) in a humified 5% CO2 incubator for seven days, followed by 12% horse serum for four days, and 6% horse serum until the completion of the experiments.

CX3CR1Cre^ERT.hM4di mice = assay: Microglial Gi DREADD inhibition in CX3CR1Cre^ERT.hM4di mice given ethanol +/- CNO; type: in vivo, mouse; conditions: ten days of ethanol +/- CNO
Protocol: For in vivo studies, heterozygous CX3CR1.Cre^ERT.hM4di were treated with tamoxifen (75 mg/kg/d, i.p.) for 5 days during adulthood (12 weeks of age).

3×Tg-AD mice [1] = tested on: 3×Tg-AD mice
Protocol: (§1) Western blot was performed as reported previously^9,10. Brain tissue from the cerebral cortex was homogenized in lysis buffer (Tris-HCl, pH 7.5, Sucrose, EDTA, EGTA, 1% Triton X-100, protease, and phosphatase inhibitors). […] of protein were loaded into each lane on SDS polyacrylamide gels and were transferred to PVDF membranes. Membranes were washed in TBS and blocked for 1 hour at room temperature (Li-Cor Blocking Solution; 92760001) then were incubated overnight at 4° Celsius with primary antibodies (Table 1). Membranes were washed in TBS with 0.1% Tween-20 (Sigma-Aldrich, St. Louis, MO) then were incubated in the appropriate conjugated secondary antibody (Rockland H & L Pre-absorbed). Membranes were washed again in TBS and visualized using LiCor Image Studio Lite Ver 5.2. Western Blots were analyzed using Image Studio Lite software and each protein of interest was normalized to housekeeping protein GAPDH. […] The protein of interest was normalized to GAPDH for each sample and the percentage change relative to controls was calculated for each blot.

WT mice [2] = conditions: WT cortex, 10-mo mice, ethanol 5 weeks
Protocol: as §1

3×Tg-AD mice [3] = tested on: 3×Tg-AD mice; remark: listed apart in the source
Text: mRNA was extracted from frozen cortex or hippocampus as reported^10. Briefly, samples were homogenized with Trizol (Invitrogen) and RNA was isolated by chloroform extraction, followed by reverse transcription as described previously 11. SYBR green PCR master mix (Applied Biosystems, Foster City, CA) was used for qRT-PCR analysis. Primer sequences were designed using the National Library of Medicine Primer-BLAST tool or were obtained from PrimerBank database (Table 1) 12-14. Only primers with no predicted non-specific targets and single peak melt curves were used. Genes of interest were normalized to the expression of the reference gene 18S using the cycle threshold (Ct) value of each target gene product. The ΔΔCt method was used to compare relative differences between control and treatment groups, and the ratio by 18S or the percent change relative to 18S were used in analysis.

WT mice [4] = tested on: WT mice
3×Tg-AD mice [5] = tested on: 3×Tg-AD mice; remark: listed apart in the source
[6] = 5 g/kg/d i.g., 20% ethanol w/v, at 1 hour; cited from earlier work
[7] = HEBSC from adult 3×Tg-AD mice, ENT region
[8] = 3×Tg-AD cortex, listed as ethanol

C[N+]1([O-])CCN(C2=Nc3cc(Cl)ccc3Nc3ccccc32)CC1 [CNO]
effect on ethanol-induced increase in cytosolic lipid (HEBSC from 3×Tg-AD mice; HEBSC from 3×Tg-AD mice): prevented | effect on ethanol-induced proinflammatory activation of microglia in ENT (IF) (CX3CR1Cre^ERT.hM4di mice): prevented | effect on ethanol-induced increases in total and neuronal lipid (CX3CR1Cre^ERT.hM4di mice; ENT): prevented

O=C(Oc1nsnc1N1CCCCC1)N1CCCCC1 [LAListat]
effect on cytosolic lipid levels (HEBSC from 3×Tg-AD mice; [7]): concentration-dependent increase; also recorded: dose-dependent increase | effect on intraneuronal Aβ in ENT (HEBSC from 3×Tg-AD mice; [7]): concentration-dependent increase; also recorded: dose-dependent increase

O=c1c(-c2ccc(O)cc2)coc2cc(O)cc(O)c12 [genistein]
effect on ethanol-induced increase in cytosolic lipid (HEBSC from 3×Tg-AD mice; HEBSC from 3×Tg-AD mice): did not abolish; also recorded: did not reduce; also recorded: no effect

CCO [Ethanol, ethanol]
increase of active p-Tyr216 GSK3β (3×Tg-AD mice [1]; 3×Tg-AD): 17% | reduction of inactive pSer9 GSK3β (3×Tg-AD mice [1]; 3×Tg-AD): 15.6% | effect on BACE1 levels (3×Tg-AD mice [1]; 3×Tg-AD cortex): no effect | effect on PSEN1 levels (3×Tg-AD mice [1]; 3×Tg-AD cortex): no effect | increase in LAMP1 protein (3×Tg-AD mice [1]; 3×Tg-AD cortex): 26% | increase in LC3 (LC3-II) protein (3×Tg-AD mice [1]; 3×Tg-AD cortex): 20% | increase in P62 protein (3×Tg-AD mice [1]; 3×Tg-AD cortex): 20% | increase in p-mTOR (3×Tg-AD mice [1]; 3×Tg-AD cortex): ~ 2 fold | reduction in Beclin-1 protein (3×Tg-AD mice [1]; 3×Tg-AD cortex): 14% | reduction in LAL protein (3×Tg-AD mice [1]; 3×Tg-AD cortex): 19% | reduction in TFEB protein (3×Tg-AD mice [1]; 3×Tg-AD cortex): 20% | increase in p-mTOR (3×Tg-AD mice [1]; [8]): 2 fold | reduction in Beclin-1 protein (3×Tg-AD mice [1]; [8]): 20% | increase in LAMP1, females (WT mice [2]): ~ 33% | reduction in Beclin-1 protein, females (trend, p=0.08) (WT mice [2]): 13% | reduction in Beclin-1 protein, males (WT mice [2]): 12% | reduction in LC3A/B (WT mice [2]): 12% | increase in P62 protein, females (WT mice [2]; not altered in males): 33% | LAL (LIPA) gene expression (3×Tg-AD mice [3]; 3×Tg-AD): reduced | effect on hMAPT expression, cortex or hippocampus (3×Tg-AD mice [3]; 3×Tg-AD): No effect | effect on expression of human APP (hAPP) transgene, cortex (3×Tg-AD mice [3]; 3×Tg-AD cortex): no effect | increase in hAPP expression, male hippocampus (3×Tg-AD mice [3]; 3×Tg-AD males, no change in females): 38% | increase in total Aβ in ENT (WT mice [4]; 5 weeks ethanol): 36% | increase in lipid levels in ENT (WT mice [4]; chronic ethanol): 83% | increase in lysosomal lipid in ENT (WT mice [4]; chronic ethanol): ~ 2 fold | increase in lysosomal lipid in ENT (WT mice [4]; chronic ethanol, listed as ethanol): 2.5 fold | increase in Aβ (HEBSC from 3×Tg-AD mice; HEBSC, ethanol): 2 fold | increase in cytosolic lipid (HEBSC from 3×Tg-AD mice; HEBSC, ethanol): 2 fold | reduction of lysosomal acidification (LysoTracker red) (HEBSC from 3×Tg-AD mice; ethanol 100 mM, 4 days): 50% | increase in TUNEL+ neurodegeneration in ENT (3×Tg-AD mice [5]; 3×Tg-AD): 2.5 fold and 3 fold | increase in cytosolic lipid (LipidSpot), ENT (3×Tg-AD mice [5]; 3×Tg-AD): 88% | increase in cytosolic lipid (LipidSpot), FCX (3×Tg-AD mice [5]; 3×Tg-AD): 38% | increase in extra-lysosomal cytoplasmic Aβ, ENT (3×Tg-AD mice [5]; 3×Tg-AD): 1.9 fold | increase in extra-lysosomal cytoplasmic Aβ, FCX (3×Tg-AD mice [5]; 3×Tg-AD): 1.8 fold | increase in intraneuronal Aβ (IF), ENT (3×Tg-AD mice [5]; 3×Tg-AD): 59% | increase in intraneuronal Aβ (IF), FCX (3×Tg-AD mice [5]; 3×Tg-AD): 52% | increase in lipid within Aβ+ neurons, ENT (3×Tg-AD mice [5]; 3×Tg-AD): 2.2 fold | increase in lipid within Aβ+ neurons, FCX (3×Tg-AD mice [5]; 3×Tg-AD): 75% | increase in lysosomal lipid in Aβ+ neurons, ENT (3×Tg-AD mice [5]; 3×Tg-AD): 3.3 fold | increase in lysosomal lipid in Aβ+ neurons, FCX (3×Tg-AD mice [5]; 3×Tg-AD): ~ 75% and 75% | increase in lysosomes in Aβ+ neurons, FCX and ENT (3×Tg-AD mice [5]; 3×Tg-AD): 2 fold | increase in p-tau181 in FCX (3×Tg-AD mice [5]; 3×Tg-AD): 40% | increase in p-tau-181 in CA1 and FCX (3×Tg-AD mice [5]; 3×Tg-AD): 40% | reduction in total LAL in ENT and SUB (3×Tg-AD mice [5]; 3×Tg-AD): ~50% | increase in Aβ plaques, female subiculum, dorsal (3×Tg-AD mice [5]; 3×Tg-AD females): 91% | increase in Aβ plaques, female subiculum, ventral (3×Tg-AD mice [5]; 3×Tg-AD females): 127% | increase in amyloid plaques in SUB (3×Tg-AD mice [5]; 3×Tg-AD females): 2 fold | Aβ1-42 in FCX (3×Tg-AD mice [5]; 3×Tg-AD, both sexes): increased | increase in pathogenic intraneuronal Aβ1-42 in ENT, FCX and SUB (3×Tg-AD mice [5]; 3×Tg-AD, both sexes): 55-60% | increase in microglial (Iba-1+) lipid (3×Tg-AD mice [5]; 3×Tg-AD, chronic ethanol): 2 fold and ~ 2 fold | increase in LAMP1+ lysosomes in Aβ-containing neurons, FCX (3×Tg-AD mice [5]; 3×Tg-AD, ethanol-treated females): ~ 2 fold | increase in intraneuronal Aβ1-42 in ENT (3×Tg-AD mice [5]; 3×Tg-AD, midlife ethanol vs control): 57% | increase in cytosolic lipid (LipidSpot), ENT (3×Tg-AD mice [5]; 3×Tg-AD, listed as EtOH): 80% | reduction of Aβ lysosomal:extra-lysosomal cytoplasmic (lyso:cyto) ratio, FCX and ENT (3×Tg-AD mice [5]; 3×Tg-AD, stated for ethanol and obesity together): ~ 20% | peak blood alcohol concentration [6]: ~ 290 mg/dL and ~ 280 mg/dL

B1: rLAL: recombinant lysosomal acid lipase / sebelipase (protein, UniProt P38571 77-399, looked up)
Lysosomal acid …: GPKPVVFLQHGLLADSSNWVTNLANSSLGFILADAGFDVWMGNSRGNTWSRKHKTLSVSQDEFWAFSYDEMAKYDLPASINFILNKTGQEQVYYVGHSQGTTIGFIAFSQIPELAKRIKMFFALGPVASVAFCTSPMAKLGRLPDHLIKDLFGDKEFLPQSAFLKWLGTHVCTHVILKELCGNLCFLLCGFNERNLNMSRVDVYTTHSPAGTSVQNMLHWSQAVKFQKFQAFDWGSSAKNYFHYNQSYPPTYNVKDMLVPTAVWSGGHDWLADVYDVNILLTQITNLVFHESIPEWEHLDFIWGLDAPWRLYNKIINLMRKYQ
reduction of baseline Aβ levels (HEBSC from 3×Tg-AD mice; HEBSC from 3×Tg-AD mice): 50% | effect on ethanol-induced increase in cytosolic lipid (HEBSC from 3×Tg-AD mice; HEBSC from 3×Tg-AD mice): blocked | effect on ethanol-induced increase in intraneuronal Aβ (HEBSC from 3×Tg-AD mice; HEBSC from 3×Tg-AD mice): abolished | effect on ethanol-induced increase in intraneuronal Aβ (HEBSC from 3×Tg-AD mice; HEBSC from 3×Tg-AD mice, listed as Recombinant LAL): blocked
